The source of these data is ChEMBL document CHEMBL4364294 (J Med Chem, 2019).

Structures are written as SMILES.

A short description of the series: Intrinsic clearance in human liver microsomes. It counts as ADME, Microsome. Particulars: read-out: CLH.

`OC(CC1c2c(F)cccc2-c2cncn21)C1CCC(F)(F)CC1` (stereo unspecified): the predicted hepatic clearance was 15.3 mL/min/kg.
